In series [1] the target is T1, topoII/DNA cleavage complex (Homo sapiens, UniProt P11388).
T1 construct: purchased Inspiralis
The series is described as follows: topoisomerase II cleavage complex assay. Type of series: biochemical. The procedure:
Figure 2 Poison activity of the hybrid compounds. Agarose gel electrophoresis of plasmid DNA incubated in the absence (no enzyme) or presence of 1 U of topoII containing either 1% DMSO as control vehicle (no enzyme and topoII lanes) or 200 μM compound. Labels are shown above each lane. Numbers at the bottom correspond to the normalized intensity of the linear form (FIII). Plasmid forms are indicated by the arrow-points on the right: supercoiled (FI), nicked (FII), and linear (FIII).
Poison activity of the compounds was evaluated using a cleavage complex assay (Inspiralis) as described previously.[60] Compounds were tested at a fixed concentration of 200 μM in the presence of 1 U of topoisomerase II and 500 ng of […] plasmid at 37 °C for 6 min. Final DMSO concentration in the assay was 1%. Reaction products were subjected to electrophoresis in a 1% agarose gel, stained with SYBR Safe DNA stain, and DNA bands were visualized and quantified as described above.

Series [2] can be described thus: aqueous kinetic solubility. Type of series: physicochemical. To be noted: PBS, pH 7.4, PBS pH 7.4, target 250 µM, 2.5% DMSO, 25°C. As to the method:
1. In vitro m etabolic stabili ty
In vitro microsomial stability. 10mM DMSO stock solution of test compound was pre-incubated at 37 °C for 15min with mouse liver microsomes added 0.1M Tris-HCl buffer (pH 7.4). The final concentration was 4.6µM. After pre -incubation, the co-factors (NADPH, G6P, G6PDH and MgCl2 pre-dissolved in 0.1M Tris-HCl) were added to the incubation mixture and the incubation was continued at 37 °C for 1h. At each time point (0, 5, 15, 30, 60min), 30µL of incubation mixture was diluted with 200µL cold CH 3CN spiked with 200n M of internal standard, followed by centrifugation at 3500g for 15min. The supernatant was further diluted with H2O (1:1) for analysis. The concentration of test compound was quantified by LC/MS-MS on a Waters ACQUITY UPLC/M S TQD system consisting of a TQD (Triple Quadrupole Detector) Mass Spectrometer equipped with an Electrospray Ionization interface. The analyses were run on an ACQUITY UPLC BEH C18 (50x2.1mmID, particle size 1.7µm) with a VanGuard BEH C18 pre -column (5x2.1mmID, particle size 1.7µm) at 40°C, using 0.1% HCOOH in H 2O (A) and 0.1% HCOOH in CH 3CN (B) as mobile phase. Electrospray ionization (ESI) was app lied in positive mode . The percentage of test compound remaining at each time point relative to t=0 was calculated. The half -lives (t½) were determined by an one-phase decay equation using a non -linear regression of compound concentration versus time.
In vitro Plasma Stability. 10mM DMSO stock solution of test compound was diluted 50 -fold with DMSO-H2O (1:1) and incubated at 37 °C for 2 h with mouse plasma added 5% DMSO (pre-heated at 37 °C for 10 min). The final concentration was 2µM. At each time point (0, 5, 15, 30, 60, 120min), 50 µL of incubation mixture was diluted with 200µL cold CH3CN spiked with 200nM of internal standard, followed by centrifugation at 3500g for 20min. The supernatant was further diluted with H2O (1:1) for analysis. The concentration of test compound was quantified by LC/MS-MS on a Waters ACQUITY UPLC/MS TQD system consisting of a TQD (Triple Quadrupole Detector) Mass Spectrometer equipped with an Electrospray Ionization interface. The analyses were run on an ACQUITY UPLC BEH C18 (50x2.1mmID, particle size 1.7µm) with a VanGuard BEH C18 pre - column (5x2.1mmID, particle size 1.7µm) at 40°C, using 0.1% HCOOH in H2O (A) and 0.1% HCOOH in CH3CN (B) as mobile phase. Electrospray ionization (ESI) was applied in positive mode.
The response factors, calculated on the basis of the internal standard peak area, were plotted over time. When possible, response vs. time profiles were fitted with Prism (GraphPad Software, Inc., USA) to estimate compounds half-life in plasma.
2. Aqueous ki netic solu bili ty
The aqueous kinetic solubility was determined from a 10mM DMSO stock solution of test compound in Phosphate Buffered Saline (PBS) at pH 7.4. The study was performed by incubation of an aliquot of 10mM DMSO stock solution in PBS (pH 7.4) at a target concentration of 250µM resulting in a final concentration of 2.5% DMSO. The incubation was carried out under shaking at 25°C for 24h followed by centrifugation at 21.100g for 30min. The supernatant was analyzed by UPLC/MS for the quantification of dissolved compound by UV at a specific wavelength (215nm).
The analyses were performed on a Waters ACQUITY UPLC/MS SQD system consisting of a SQD (Single Quadrupole Detector) Mass Spectrometer equipped with Electrospray Ionization interface.
The analyses were run on an ACQUITY UPLC BEH C18 column (50x2.1mmID, particle size 1.7µm) with a VanGuard BEH C18 pre-column (5x2.1mmID, particle size 1.7µm), using 10mM NH4OAc in H2O at pH 5 adjusted with AcOH (A) and 10mM NH4OAc in MeCN-H2O (95:5) at pH 5 (B) as […]

T1 sequence (P11388 whole entry, one chain of several): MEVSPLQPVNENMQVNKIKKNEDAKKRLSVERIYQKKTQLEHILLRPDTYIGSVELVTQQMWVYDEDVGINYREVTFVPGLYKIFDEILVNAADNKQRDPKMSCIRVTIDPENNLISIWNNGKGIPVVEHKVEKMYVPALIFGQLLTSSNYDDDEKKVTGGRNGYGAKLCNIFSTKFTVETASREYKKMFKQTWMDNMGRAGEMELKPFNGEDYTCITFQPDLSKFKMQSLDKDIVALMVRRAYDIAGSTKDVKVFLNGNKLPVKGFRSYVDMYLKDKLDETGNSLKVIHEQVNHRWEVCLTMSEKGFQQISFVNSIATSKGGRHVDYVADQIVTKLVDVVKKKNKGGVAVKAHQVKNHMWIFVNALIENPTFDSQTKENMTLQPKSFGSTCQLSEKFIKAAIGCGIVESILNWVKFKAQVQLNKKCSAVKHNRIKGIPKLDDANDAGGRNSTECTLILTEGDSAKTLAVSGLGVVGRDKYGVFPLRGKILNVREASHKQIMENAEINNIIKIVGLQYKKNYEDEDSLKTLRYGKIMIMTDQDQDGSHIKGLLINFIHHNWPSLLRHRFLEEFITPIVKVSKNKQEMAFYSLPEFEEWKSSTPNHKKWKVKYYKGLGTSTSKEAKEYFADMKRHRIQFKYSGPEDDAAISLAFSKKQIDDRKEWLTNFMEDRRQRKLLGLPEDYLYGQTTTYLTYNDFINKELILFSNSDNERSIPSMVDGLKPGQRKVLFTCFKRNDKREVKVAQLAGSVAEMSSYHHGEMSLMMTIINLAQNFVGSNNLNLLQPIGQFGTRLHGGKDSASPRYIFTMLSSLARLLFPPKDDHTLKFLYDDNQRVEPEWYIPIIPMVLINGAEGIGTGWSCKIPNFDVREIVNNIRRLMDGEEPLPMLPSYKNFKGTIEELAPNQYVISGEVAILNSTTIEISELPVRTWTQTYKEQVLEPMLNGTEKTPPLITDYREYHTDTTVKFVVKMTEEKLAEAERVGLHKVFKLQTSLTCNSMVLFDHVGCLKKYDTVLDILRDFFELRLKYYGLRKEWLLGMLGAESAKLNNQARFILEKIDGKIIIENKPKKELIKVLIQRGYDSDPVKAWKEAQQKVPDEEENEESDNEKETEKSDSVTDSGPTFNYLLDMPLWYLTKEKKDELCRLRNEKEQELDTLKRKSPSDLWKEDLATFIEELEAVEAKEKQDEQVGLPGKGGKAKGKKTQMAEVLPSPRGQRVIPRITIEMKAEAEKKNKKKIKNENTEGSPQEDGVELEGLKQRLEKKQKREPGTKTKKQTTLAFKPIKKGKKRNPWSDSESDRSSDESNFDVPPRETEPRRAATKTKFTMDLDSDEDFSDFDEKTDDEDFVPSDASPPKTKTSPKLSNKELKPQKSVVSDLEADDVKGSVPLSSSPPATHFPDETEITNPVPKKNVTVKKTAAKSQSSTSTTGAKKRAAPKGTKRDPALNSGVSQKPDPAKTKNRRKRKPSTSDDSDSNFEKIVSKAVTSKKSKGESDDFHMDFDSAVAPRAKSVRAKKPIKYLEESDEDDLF

On to `O=C(Nc1cccc(OC(F)(F)F)c1)c1c(O)n(-c2ccccc2)c(=S)n(-c2ccccc2)c1=O` [3f, 6-Hydroxy-4-oxo-1,3-diphenyl-2-thioxo-N-(3-(trifluoromethoxy)phenyl)-1,2,3,4-tetrahydropyrimidine-5-carboxamide], for which the “mode of action in cleavage complex formation assay” value in series [1] (200 μM compound, 1 U topoII, plasmid DNA) was “confirmed to be poisons”. Further, in series [1] (200 μM concentration, linear form (FIII) intensity), the “poison efficacy, fold better than ARN16267” value was “about 1.5 fold”. In series [2], this compound displayed a solubility (kinetic) at 24 h of over 200 µM.

The record behind these values is PMC7997578, “Design, Synthesis, Dynamic Docking, Biochemical Characterization, and in Vivo Pharmacokinetics Studies of Novel Topoisomerase II Poisons with Promising Antiproliferative Activity” (Journal of Medicinal Chemistry, 2020).
